Measurements reported in PMC5216056 (Nature Communications, 2017).
Several values for one entry are separate records, joined by “and”; a condition that tells them apart may be missing. Equal values may be shown once. Entries after “also recorded” stand apart in the source; their conditions may differ.

Experiments:
FP (h) = biological target: T1, FP (h) (Homo sapiens, UniProt P43088); experiment: CEREP panel; format: binding; conditions: for % inhibition FP (h): 10 µM
T1 construct: CEREP (contract assay)

mCB2R [1] = biological target: T2, mCB2R (Mus musculus, UniProt P47936); experiment: PathHunter β-arrestin recruitment assay; format: cell-based
mCB2R [2] = biological target: T2, mCB2R; experiment: Operational analysis of biased signalling
5-HT1A (h) = biological target: T3, 5-HT1A (h) (Homo sapiens, UniProt P08908); experiment: CEREP panel; format: binding
T3 construct: CEREP (contract assay)

M4 (h) = biological target: T4, M4 (h) (Homo sapiens, UniProt P08173); experiment: CEREP panel; format: binding
T4 construct: CEREP (contract assay)

in vitro [3] = conditions: both, human, microsomes, pH 7.4
in vitro [4] = conditions: male, C57BL/6J, mouse, microsomes, pH 7.4
COX2 (h) = biological target: T5, COX2 (h) (Homo sapiens, UniProt P35354); experiment: CEREP panel, enzyme and cell-based assays; format: biochemical; conditions: 10 µM
T5 construct: CEREP (contract assay)

C57BL6/J mice = experiment: Triad assay: antinociception; format: in vivo, mouse; conditions: mouse, in vivo
MT1 (ML1A) (h) = biological target: T6, MT1 (ML1A) (h) (Homo sapiens, UniProt P48039); experiment: CEREP panel; format: binding; conditions: 10 µM; read-out: % inhibition MT1 (ML1A) (h)
T6 construct: CEREP (contract assay)

physchem [5] = conditions: pH 6.5, aqueous buffer, thermodynamic from solid
physchem [6] = conditions: organic solvent or mixture
in vitro [7] = conditions: human, hepatocytes
in vitro [8] = conditions: C57BL6, mouse, hepatocytes
[9] = not given; remark: listed apart in the source

T1 sequence (P43088 whole entry): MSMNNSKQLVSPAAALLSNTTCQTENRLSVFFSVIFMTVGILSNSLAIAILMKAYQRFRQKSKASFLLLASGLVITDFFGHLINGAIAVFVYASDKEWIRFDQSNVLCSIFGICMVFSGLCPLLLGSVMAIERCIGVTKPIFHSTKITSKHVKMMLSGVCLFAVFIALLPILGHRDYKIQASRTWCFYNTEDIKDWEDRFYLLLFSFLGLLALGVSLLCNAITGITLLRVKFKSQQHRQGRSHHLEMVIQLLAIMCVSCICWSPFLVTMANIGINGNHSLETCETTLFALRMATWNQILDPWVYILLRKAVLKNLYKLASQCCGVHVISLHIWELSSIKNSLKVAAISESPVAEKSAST
T2 sequence (P47936 whole entry): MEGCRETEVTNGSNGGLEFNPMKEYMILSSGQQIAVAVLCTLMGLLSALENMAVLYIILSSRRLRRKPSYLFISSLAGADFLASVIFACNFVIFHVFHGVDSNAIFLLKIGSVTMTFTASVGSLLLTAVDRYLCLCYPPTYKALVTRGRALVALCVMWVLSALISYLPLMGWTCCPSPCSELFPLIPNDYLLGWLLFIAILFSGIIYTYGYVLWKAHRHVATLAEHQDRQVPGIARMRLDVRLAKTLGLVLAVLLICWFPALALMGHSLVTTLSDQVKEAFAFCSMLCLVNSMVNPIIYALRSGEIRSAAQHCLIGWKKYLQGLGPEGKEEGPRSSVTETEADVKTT
T3 sequence (P08908 whole entry): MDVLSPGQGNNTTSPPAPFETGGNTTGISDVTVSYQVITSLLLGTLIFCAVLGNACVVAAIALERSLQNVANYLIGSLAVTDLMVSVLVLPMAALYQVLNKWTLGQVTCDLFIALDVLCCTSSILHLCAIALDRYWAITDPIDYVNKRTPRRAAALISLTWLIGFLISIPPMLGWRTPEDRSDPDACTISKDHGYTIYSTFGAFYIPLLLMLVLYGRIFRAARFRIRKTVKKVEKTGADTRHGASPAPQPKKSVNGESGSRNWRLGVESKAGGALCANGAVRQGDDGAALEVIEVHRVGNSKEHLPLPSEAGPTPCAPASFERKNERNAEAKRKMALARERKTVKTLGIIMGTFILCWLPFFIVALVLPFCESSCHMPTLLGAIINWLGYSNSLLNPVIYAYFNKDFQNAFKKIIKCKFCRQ
T4 sequence (P08173 whole entry): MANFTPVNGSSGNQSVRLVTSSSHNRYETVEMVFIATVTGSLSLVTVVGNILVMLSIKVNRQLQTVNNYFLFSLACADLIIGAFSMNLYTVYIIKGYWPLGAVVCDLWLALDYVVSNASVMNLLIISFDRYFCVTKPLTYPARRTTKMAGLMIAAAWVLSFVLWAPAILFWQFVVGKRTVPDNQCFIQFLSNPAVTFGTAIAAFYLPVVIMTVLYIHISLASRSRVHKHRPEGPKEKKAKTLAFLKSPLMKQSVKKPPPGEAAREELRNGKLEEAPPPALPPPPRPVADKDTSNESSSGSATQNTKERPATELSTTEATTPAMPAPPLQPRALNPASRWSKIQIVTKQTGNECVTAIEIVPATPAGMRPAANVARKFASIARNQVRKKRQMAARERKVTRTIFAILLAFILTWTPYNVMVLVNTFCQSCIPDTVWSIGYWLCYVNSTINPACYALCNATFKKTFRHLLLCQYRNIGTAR
T5 sequence (P35354 18-604): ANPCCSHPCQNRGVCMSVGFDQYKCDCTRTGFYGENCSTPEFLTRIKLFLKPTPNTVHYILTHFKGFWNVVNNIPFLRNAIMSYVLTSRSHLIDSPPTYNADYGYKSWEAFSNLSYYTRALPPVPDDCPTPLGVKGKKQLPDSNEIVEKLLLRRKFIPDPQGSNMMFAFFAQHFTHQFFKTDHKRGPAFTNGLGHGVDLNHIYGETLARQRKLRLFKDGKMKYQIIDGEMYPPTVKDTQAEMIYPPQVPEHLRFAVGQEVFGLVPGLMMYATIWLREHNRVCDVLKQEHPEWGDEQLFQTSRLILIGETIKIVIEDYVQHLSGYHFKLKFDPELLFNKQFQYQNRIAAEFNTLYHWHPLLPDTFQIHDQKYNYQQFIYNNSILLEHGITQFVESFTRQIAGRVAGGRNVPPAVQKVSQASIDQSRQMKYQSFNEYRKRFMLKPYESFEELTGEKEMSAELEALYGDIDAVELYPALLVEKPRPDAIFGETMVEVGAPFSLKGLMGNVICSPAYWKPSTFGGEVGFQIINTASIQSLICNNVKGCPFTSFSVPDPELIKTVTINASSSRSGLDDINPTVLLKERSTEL
T6 sequence (P48039 whole entry): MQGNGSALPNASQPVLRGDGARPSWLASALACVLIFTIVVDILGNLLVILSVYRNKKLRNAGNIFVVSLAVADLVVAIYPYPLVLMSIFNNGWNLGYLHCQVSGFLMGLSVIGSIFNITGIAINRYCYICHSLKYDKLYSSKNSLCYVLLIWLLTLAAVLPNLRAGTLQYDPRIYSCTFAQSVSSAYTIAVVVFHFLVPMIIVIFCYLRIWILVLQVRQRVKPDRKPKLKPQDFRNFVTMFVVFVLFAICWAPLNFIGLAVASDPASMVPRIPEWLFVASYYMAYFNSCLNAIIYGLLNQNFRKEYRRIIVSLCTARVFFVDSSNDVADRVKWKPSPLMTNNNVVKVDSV

Cc1c(C(=O)NN2CCCCC2)nn(-c2ccc(Cl)cc2Cl)c1-c1ccc(I)cc1 [AM251]
% inhibition FP (h) (FP (h)): 94%

CCCCCCC(C)(C)c1ccc([C@@H]2C[C@H](O)CC[C@H]2CCCO)c(O)c1 [CP55940]
EC50 (mCB2R [1]): 9.55 nM | Emax (mCB2R [1]; read-out: Emax ± SEM β-AR recruitment mCB2R): 96 ± 1% | GTPγS-cAMP bias factor (BF) (mCB2R [2]): 1 | GTPγS-cAMP ΔΔlogR (mCB2R [2]): 0 ± 0.21 | LogR GTPγS (mCB2R [2]): 7.82 ± 0.05 | LogR cAMP (mCB2R [2]): 10.52 ± 0.14 | LogR β-AR (mCB2R [2]): 8.0 ± 0.06 | β-AR-GTPγS bias factor (BF) (mCB2R [2]): 1 | β-AR-GTPγS ΔΔlogR (mCB2R [2]): 0 ± 0.10 | β-AR-cAMP bias factor (BF) (mCB2R [2]): 1 | β-AR-cAMP ΔΔlogR (mCB2R [2]): 0 ± 0.21 | ΔLogR GTPγS (mCB2R [2]; reference CP55940): 0 ± 0.07 | ΔLogR cAMP (mCB2R [2]; reference CP55940): 0 ± 0.20 | ΔLogR β-AR (mCB2R [2]; reference CP55940): 0 ± 0.08 | RE GTPγS (mCB2R [2]; relative effectiveness): 1.00 | RE cAMP (mCB2R [2]; relative effectiveness): 1.00 | RE β-AR (mCB2R [2]; relative effectiveness): 1.00 | inhibition at 10 µM (FP (h)): 100% | inhibition at 10 µM (5-HT1A (h)): 92% | inhibition at 10 µM (M4 (h)): 55% | microsomal CLint (in vitro [3]): 80 µL/min/mg | microsomal CLint (in vitro [4]): 172 µL/min/mg

COc1ccc(C(=O)c2c(C)n(CCN3CCOCC3)c3cc(I)ccc23)cc1 [AM630]
% inhibition FP (h) (FP (h)): 66% | % inhibition COX2 (h) (COX2 (h)): 96% | Plasma protein binding mouse: 0.4 %free

Cc1c(C(=O)NN2CCCCC2)nn(-c2ccc(Cl)cc2Cl)c1-c1ccc(Cl)cc1 [SR141716A]
antagonism of HU210-induced antinociception (C57BL6/J mice): attenuated; also recorded: significantly antagonized | inhibition at 10 µM (MT1 (ML1A) (h)): 62% | solubility kinetic (physchem [5]): < 0.733 µg/mL and < 1.6 µM | solubility (physchem [6]): 1.23 µg/mL and 2.7 µM | microsomal CLint (in vitro [3]): 20 µL/min/mg | microsomal CLint (in vitro [4]): 109 µL/min/mg | hepatocyte CLint (in vitro [7]): 5.7 µL/min/1e6 cells | hepatocyte CLint (in vitro [8]): 65 µL/min/1e6 cells

CCCCC/C=C\C/C=C\C/C=C\C/C=C\CCCC(=O)NCCO [Anandamide, N-arachidonoylethanolamine]
solubility kinetic (physchem [5]): < 1.1 µg/mL and < 3.2 µM | microsomal CLint (in vitro [3]): 47 µL/min/mg | microsomal CLint (in vitro [4]): 222 µL/min/mg

CN1CCCC[C@H]1Cn1cc(C(=O)c2cc([N+](=O)[O-])ccc2I)c2ccccc21 [(S)-AM1241]
% inhibition 5-HT1A (h) (5-HT1A (h); 10 µM): 74% | % inhibition M4 (h) (M4 (h); 10 µM): 74% | Plasma protein binding human [9]: 0.5 %free | Plasma protein binding mouse: 1.2 %free
